The record followed here is patent US20240208949A1, “COMPOSITIONS, FORMULATIONS, AND METHODS FOR HAIR TREATMENT” (Oddity Labs, LLC, priority 2022, published 2024).

Series [1] concerns human hair follicle dermal papilla cells (hFDPC). Put plainly: Human follicle dermal papilla cell (hFDPC) proliferation, cell viability assay. Type of series: cell-based. The settings on record: hFDPCs from donors 25-83 years old; vs DMSO control. On the procedure: The ability of a compound or salt of the present disclosure to increase proliferation of human hair follicle dermal papilla cells (hFDPC) was tested using a cell viability assay, such as the Promega CellTiter-Glo® Luminescent Cell Viability Assay, MTT cell proliferation assay (ATCC® 30-1010K), or manual cell counting. The compound or salt was added at various concentrations spanning at least a 2-log range. hFDPCs were derived from multiple donors ranging from 25-83 years old and cultured on tissue-treated plastic using predefined growth media supplemented with 6-bromoindirubin-3′-Oxime (BIO), recombinant bone morphogenetic protein-2 (BMP-2), and basic fibroblast growth factor (FGFβ), a combination previously found to preserve in situ dermal papilla gene signatures. […] In TABLE 12, A represents less than 20% increased proliferation of hFDPCs, B represents a 20-40% increase, and C represents more than a 40% increase in the proliferation of hFDPCs.

A short description of series [2]: Structural stability in solvent mixtures at elevated temperature, LC-UV. The settings on record: for Purity (LC-UV) after stirring: 80° C., 2 hrs. It is filed as physicochemical. The procedure:
Additionally, the ability of a compound or salt of the present disclosure was evaluated at room temperature as well as at 60° C. for varying periods of time (FIG. 1B). The structural stability of compound I-1 was further explored by stirring this compound in 2 different solvent mixtures at elevated temperatures for 2 hours. (TABLE 13). The samples were analyzed by LC-UV after stirring for 2 hrs (FIG. 2).

The nature of series [3]: Stability on open-air storage, LCMS/HPLC-UV. Type of series: physicochemical. The procedure:
A sample was analyzed for stability using LCMS. In both cases, the peak at 1.25 min was determined to be product I-1, while the impurity at 0.66 min was identified as the hydrolysis product 3-B04, as referenced in Scheme 9b. After analysis, the sample was allowed to stand in open air overnight. […] The purity of the compound in FIG. 7B was analyzed to be 95.3% (254 nm), and in FIG. 7D to be 90.61% (254 nm) after standing overnight in air. […] The compound gradually decomposed into compound 3-B04 and propane sulfonic acid.

Series [4] in a line: Stability in DMI solution, LCMS/HPLC-UV. Type of series: physicochemical. The procedure:
A sample containing compound I-1 was prepared in 1,3-Dimethyl-2-imidazolidinone (DMI), sealed, and stored at room temperature for 7 days. Another sample containing compound I-1 was prepared in DMI and left open for 8 days. The purity of both samples was assessed using LCMS. […] The purity in FIG. 8B was determined to be 92.9%, and the purity in FIG. 8D was also found to be 92.9%.

A short description of series [5]: Thermal degradation on distillation, NMR. It is filed as physicochemical. The settings on record: distillation at 185° C. (after 30 minutes at 160° C.). On the procedure:
Thermal degradation of compound I-1 was evaluated at 160° C. and 185° C. Pure compound I-1 (1.2 g), in the form of a brown oil, was subjected to distillation for 30 minutes at 160° C. When no product was observed, distillation was attempted at 185° C., albeit unsuccessfully.

A short description of series [6]: Stability in example compositions, HPLC-UV. It is filed as physicochemical. The note with it: compositions of TABLE 2-TABLE 11, 8 months at room temperature. An excerpt:
Example of composition (TABLE 2-TABLE 11) preserves the structure and inhibits the hydrolysis of compound I-1, even after storage of 8 months at room temperature.

The target of series [7] is T1, cytochrome P450 3A4 (CYP3A4) (Homo sapiens, UniProt P08684).
T1 construct: purchased Promega
Description: P450-Glo CYP3A4 Assay and Screening System. The settings on record: 50 or 5 μM. It is filed as in vitro ADME. The procedure:
A P450-Glo™ CYP3A4 Assay and Screening System (Promega) was employed to assess the inhibitory potential of the example compounds against CYP3A4 at concentrations of either 50 or 5 μM. […] Vehicle represents 0.1% DMSO and […] is a known cytochrome P450 3A4 inhibitor .

Series [8] has as its system primary human follicle dermal papilla cells (hFDPCs). Description: ROS-Glo assay, intracellular reactive oxygen species. The settings on record: 50 or 5 μM. Type of series: cell-based. The procedure:
A ROS-Glo™ assay (Promega) was employed to assess the production of intracellular reactive oxygen species (ROS) for the example compounds at concentrations of either 50 or 5 μM. […] Vehicle represents 0.1% DMSO and DMNQ represents 2,3-dimethoxy-1,4-naphthalenedione, a known ROS-inducer.

Structures are written as SMILES. Where only a bound is given, the exact number is not on record here.

T1 sequence (P08684 whole entry): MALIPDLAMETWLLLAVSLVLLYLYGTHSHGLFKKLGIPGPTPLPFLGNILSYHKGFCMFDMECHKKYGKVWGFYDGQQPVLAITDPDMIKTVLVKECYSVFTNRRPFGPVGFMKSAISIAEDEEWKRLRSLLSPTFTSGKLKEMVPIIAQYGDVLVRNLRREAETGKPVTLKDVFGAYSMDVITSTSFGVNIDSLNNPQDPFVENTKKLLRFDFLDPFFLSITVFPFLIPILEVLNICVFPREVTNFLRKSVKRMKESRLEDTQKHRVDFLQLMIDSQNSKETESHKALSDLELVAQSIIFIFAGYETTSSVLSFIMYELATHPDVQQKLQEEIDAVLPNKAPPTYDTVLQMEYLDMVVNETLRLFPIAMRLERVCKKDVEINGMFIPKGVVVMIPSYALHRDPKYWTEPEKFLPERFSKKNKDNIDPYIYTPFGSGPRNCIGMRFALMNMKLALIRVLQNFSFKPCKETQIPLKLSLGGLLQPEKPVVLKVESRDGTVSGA

Turning to `CCCS(=O)(=O)n1nc(-c2ccco2)nc1SCCOCCOC` [I-1], the “Increase Proliferation of hFDPCs (%)” value in series [1] was “C (C represents more than a 40% increase in the proliferation of hFDPCs)”. In addition, the “Purity (LC-UV) after stirring” value is on record as 95% in series [2] (0.1% (v/v) HCOOH in H2O/0.1% (v/v) HCOOH in MeCN 1:1) and >99% in series [2] (EtOAc/Heptane 1:1). For the same compound, the “Degradation in acidic conditions” value in series [2] (acidic conditions, 2 hrs elevated temperature) is “minor degradation”. Moreover, in series [2] (organic solvents used for straight phase column chromatography, 2 hrs elevated temperature), the “Structural stability in organic solvents” value was “very stable”. Besides, in series [3] (24 hours open-air exposure, room temperature), the “Purity (254 nm) after standing overnight in air” value was 90.61%. For the same compound, the “Purity (254 nm), freshly synthesized material post-workup” value in series [3] (before air exposure (baseline)) came out at 95.3%. For the same compound, the “Stability on storage in open air” value in series [3] (room temperature, decomposes into 3-B04 and propane sulfonic acid) is reported as “hydrolyzed upon storage in open air at room temperature”. In series [4] (1,3-Dimethyl-2-imidazolidinone (DMI), open air, 8 days), the “Purity (254 nm) in DMI, left open” value was determined as 92.9%. Also, the “Purity (254 nm) in DMI, sealed” value in series [4] (1,3-Dimethyl-2-imidazolidinone (DMI), sealed, room temperature, 7 days) was 92.9%. For the same compound, in series [4] (even when solution exposed to air), the “Stability in DMI” value is “appeared to be stable”. In addition, in series [5], the Thermal degradation entry was “slightly decomposing”. Also, the “Hydrolysis in example composition on storage” value in series [6] is “minimal hydrolysis”.
As to `CCSc1nc(-c2ccco2)nn1S(C)(=O)=O` [I-2], the “Increase Proliferation of hFDPCs (%)” value in series [1] is listed as “C (C represents more than a 40% increase in the proliferation of hFDPCs)”.
Same read-out and setting: in the case of `COCCSc1nc(-c2ccco2)nn1S(C)(=O)=O` [I-3] it was “C (C represents more than a 40% increase in the proliferation of hFDPCs)”; in that of `CCCS(=O)(=O)n1nc(-c2ccco2)nc1SC` [I-4], “B (B represents a 20-40% increase)”.
On to `CCCCCS(=O)(=O)n1nc(-c2ccco2)nc1SCCOCCOC` [I-5], for which the “Increase Proliferation of hFDPCs (%)” value in series [1] is listed as “C (C represents more than a 40% increase in the proliferation of hFDPCs)”. For the same compound, in series [7], the “Inhibition of CYP3A4 activity” value is listed as “potent inhibitory potential”. Further, the “Production of intracellular ROS (oxidative stress)” value in series [8] is reported as “Elevated levels of ROS”.
Take `CCCCCS(=O)(=O)n1nc(-c2ccco2)nc1SCC` [I-6]: in series [1], the “Increase Proliferation of hFDPCs (%)” value is “B (B represents a 20-40% increase)”.
On the same count and under the same terms, to `CSc1nc(-c2ccco2)nn1S(C)(=O)=O` [VII-3] belongs “C (C represents more than a 40% increase in the proliferation of hFDPCs)”.
